Data as given in patent US20250099383A1, “COMPOSITIONS AND METHODS FOR DELIVERY OF NUCLEIC ACIDS” (Poseida Therapeutics, Inc., priority 2022, published 2025).

Experiment: Physical characteristics of LNPs (particle size, PDI)
Assay type: physicochemical
Conditions: for PDI DNA / Particle Size (nm) DNA: LNP with Fluc DNA, compound/DOPE/Cholesterol/DMG-PEG2000 38/50/10.0/2.0, Lipid:DNA 45:1 (w/w); for PDI RNA / Particle Size (nm) RNA: LNP with Fluc mRNA, compound/DOPE/Cholesterol/DMG-PEG2000 41.44/45.85/10/2.7, Lipid:RNA 40:1 (w/w)
Experimental: LNP compositions of the present disclosure comprising exemplary compounds of Formula (I) were prepared by combining various percentages of an exemplary compound of Formula (I), the phospholipid DOPE, the structural lipid cholesterol (Chol) and 1,2-dimyristoyl-sn-glycerol methoxypolyethylene glycol (DMG-PEG2000; Avanti Polar Lipids, Alabaster, Alabama, USA).
Individual 25 mg/ml stock solutions were prepared by solubilizing the lipids in 200-proof HPLC-grade ethanol and stock solutions were stored at −80° C. until formulated. At the time of formulation, the lipid stock solutions were briefly allowed to equilibrate to room temp and then placed on a hot plate maintained at a temperature range of 50-55° C.
A 1 mg/ml solution of the desired mRNA or DNA to be incorporated into the LNPs was added to 150 mM sodium acetate buffer (pH 5.2) to form a stock solution and kept on ice. The aqueous mRNA or DNA was then added to the lipids as shown in Table 4 or 5 and hand-mixed vigorously with a single channel pipettor.
The resultant mRNA or DNA LNP compositions were then transferred to a Repligen Float-A-Lyzer dialysis device-having a molecular weight cut off (MWCO) of 8-10 kDa (Spectrum Chemical Mfg. Corp, CA, USA) and processed by dialysis against phosphate buffered saline (PBS) (dialysate: dialysis buffer volume at least 1:200 v/v), pH 7.4 overnight at 4° C. (or alternatively room temperature for at least 4 hours), to remove the 25% ethanol and achieve a complete buffer exchange. In some experiments the LNPs were further concentrated by in an Amicon® Ultra-4 centrifugal filter unit, MWCO-30 kDa (Millipore Sigma, USA) spun at ˜4100 x g in an ultracentrifuge. The mRNA and DNA LNPs were then stored at 4° C. until further use.
LNP compositions of the present disclosure comprising mRNA or DNA encoding firefly luciferase (hereafter “Fluc”; TriLink) and COMPOUNDS 5-49 were prepared as described in Example 61 by combining one of COMPOUNDS 5-49, the phospholipid DOPE, the structural lipid cholesterol (Chol) and 1,2-dimyristoyl-sn-glycerol methoxypolyethylene glycol (DMG-PEG2000) in the percentages presented in Tables 6 and 7:
The physical characteristics of the resulting LNPs were analyzed.
A 1 mg/ml solution of the 5′-CleanCap--fLuciferase mRNA (TriLink Biotech) to be incorporated into the LNPs was added to 150 mM sodium acetate buffer (pH 5.2) to form a stock solution and kept on ice. The lipid phase was mixed with the aqueous mRNA phase inside a microfluidic chip using a NanoAssemblr® instrument (Precision Nanosystems, Vancouver, BC, Canada) according to the manufacturer's instructions to form LNP compositions comprising encapsulated mRNAs.
The average particle size diameter of the LNPs was approximately 75-150 nm.

Structure (SMILES) | PDI DNA | Particle Size (nm) DNA [nm] | PDI RNA | Particle Size (nm) RNA [nm]
CC(C)CCCC(C)CCCC1CCC(C(=O)OCCOC(=O)CCN(CCC(=O)OCCOC(=O)C2CCC(CCCC(C)CCCC(C)C)CC2)CCN2CCCCC2)CC1 (stereo not shown) [Compound 13, ((3,3′-((2-(piperidin-1-yl)ethyl)azanediyl)bis(propanoyl))bis(oxy)) bis(ethane-2,1-diyl)bis(4-(4,8-dimethylnonyl)cyclohexanecarboxylate)] | 0.232 | 174.1 | 0.272 | 120.6
CCCCCCCC/C=C\CCCCCCCC(=O)OCCN(C)CCOC(=O)C1CC=C(CC/C=C(\C)CCC=C(C)C)CC1 (stereo not shown) [Compound 41] | 0.085 | 295.1 | 0.057 | 306.1
CC(C)=CCCC1=CCC(C(=O)OCCOC(=O)CCN(CCC(=O)OCCOC(=O)C2CC=C(CCC=C(C)C)CC2)CCN(CCN(CCC(=O)OCCOC(=O)C2CC=C(CCC=C(C)C)CC2)CCC(=O)OCCOC(=O)C2CC=C(CCC=C(C)C)CC2)CCN(CCC(=O)OCCOC(=O)C2CC=C(CCC=C(C)C)CC2)CCC(=O)OCCOC(=O)C2CCC(CCC=C(C)C)CC2)CC1 (stereo not shown) [Compound 24] | 0.294 | 353.7 | 0.106 | 314.9
CC(C)CCCC(C)CCCC1CCC(C(=O)OCCOC(=O)CCN(CCC(=O)OCCOC(=O)C2CCC(CCCC(C)CCCC(C)C)CC2)CCN(CCN(CCC(=O)OCCOC(=O)C2CCC(CCCC(C)CCCC(C)C)CC2)CCC(=O)OCCOC(=O)C2CCC(CCCC(C)CCCC(C)C)CC2)CCN(CCC(=O)OCCOC(=O)C2CCC(CCCC(C)CCCC(C)C)CC2)CCC(=O)OCCOC(=O)C2CCC(CCCC(C)CCCC(C)C)CC2)CC1 (stereo not shown) [Compound 18] | 0.072 | 368.6 | 0.153 | 323.3
CC(C)CCCC1CCC(C(=O)OCCOC(=O)CCN(CCC(=O)OCCOC(=O)C2CCC(CCCC(C)C)CC2)CC(C)N(CCC(=O)OCCOC(=O)C2CCC(CCCC(C)C)CC2)CCC(=O)OCCOC(=O)C2CCC(CCCC(C)C)CC2)CC1 (stereo not shown) [Compound 28] | 0.12 | 224.7 | 0.027 | 254.2
CC(C)CCCC1CCC(C(=O)OCCOC(=O)CCN(CCC(=O)OCCOC(=O)C2CCC(CCCC(C)C)CC2)CCN2CCCCC2)CC1 (stereo not shown) [Compound 26] | 0.151 | 162.1 | 0.202 | 169.4
CC(C)=CCCC1=CCC(C(=O)OCCOC(=O)CCN(CCCCCCN(CCC(=O)OCCOC(=O)C2CC=C(CCC=C(C)C)CC2)CCC(=O)OCCOC(=O)C2CC=C(CCC=C(C)C)CC2)CCC(=O)OCCOC(=O)C2CC=C(CCC=C(C)C)CC2)CC1 (stereo not shown) [Compound 20] | 0.223 | 304.3 | 0.082 | 316.9
CC(C)=CCCC1=CCC(C(=O)OCCN2CCN(CCOC(=O)C3CC=C(CCC=C(C)C)CC3)CC2)CC1 (stereo not shown) [Compound 46] | 0.116 | 309 | 0.078 | 334.6
CC(C)CCCC(C)CCCC1CCC(C(=O)OCCOC(=O)CCN(CCCN(C)C)CCC(=O)OCCOC(=O)C2CCC(CCCC(C)CCCC(C)C)CC2)CC1 (stereo not shown) [Compound 12, ((3,3′-((3-(dimethylamino)propyl)azanediyl)bis(propanoyl))bis(oxy)) bis(ethane-2,1-diyl)bis(4-(4,8-dimethylnonyl)cyclohexanecarboxylate)] | 0.235 | 170.6 | 0.235 | 167.6
CC(C)=CCC/C(C)=C/CCC1=CCC(C(=O)OCCOC(=O)CCN(CCC(=O)OCCOC(=O)C2CC=C(CC/C=C(\C)CCC=C(C)C)CC2)CCN(CCN(CCC(=O)OCCOC(=O)C2CC=C(CC/C=C(\C)CCC=C(C)C)CC2)CCC(=O)OCCOC(=O)C2CC=C(CC/C=C(\C)CCC=C(C)C)CC2)CCN(CCC(=O)OCCOC(=O)C2CC=C(CC/C=C(\C)CCC=C(C)C)CC2)CCC(=O)OCCOC(=O)C2CC=C(CC/C=C(\C)CCC=C(C)C)CC2)CC1 (stereo not shown) [Compound 11] | 0.152 | 396.1 | 0.145 | 355.6

More lines, now with the values ahead:

PDI DNA | Particle Size (nm) DNA [nm] | PDI RNA | Particle Size (nm) RNA [nm] | Structure (SMILES)
0.203 | 187.9 | 0.200 | 180.3 | CC(C)=CCC/C(C)=C/CCC1=CCC(C(=O)OCCOC(=O)CCN(CCCN(C)C)CCC(=O)OCCOC(=O)C2CC=C(CC/C=C(\C)CCC=C(C)C)CC2)CC1 (stereo not shown) [Compound 5, (E)-((3,3′-((3-(dimethylamino)propyl)azanediyl)bis(propanoyl))bis(oxy)) bis(ethane-2,1-diyl)bis(4-((E)-4,8-dimethylnona-3,7-dien-1-yl)cyclohex-3-enecarboxylate)]
0.165 | 337.2 | 0.091 | 356.2 | CC(C)=CCC/C(C)=C/CCC1=CCC(C(=O)OCCOC(=O)CN(C)CC(=O)OCCOC(=O)C2CC=C(CC/C=C(\C)CCC=C(C)C)CC2)CC1 (stereo not shown) [Compound 37]
0.104 | 308.7 | 0.045 | 245.3 | CC(C)=CCCC1=CCC(C(=O)OCCN(CCO)CCOC(=O)C2CC=C(CCC=C(C)C)CC2)CC1 (stereo not shown) [Compound 49]
0.129 | 298.2 | 0.149 | 364.7 | CC(C)=CCC/C(C)=C/CCC1=CCC(C(=O)OCCN(CCOC(=O)C2CC=C(CC/C=C(\C)CCC=C(C)C)CC2)C(C)(C)C)CC1 (stereo not shown) [Compound 35]
0.102 | 270 | 0.09 | 329 | CCCCN(CCOC(=O)C1CC=C(CCC=C(C)C)CC1)CCOC(=O)C1CC=C(CCC=C(C)C)CC1 (stereo not shown) [Compound 44]
0.082 | 340.4 | 0.131 | 356.1 | CC(C)=CCCC1=CCC(C(=O)OCCN(CCOC(=O)C2CC=C(CCC=C(C)C)CC2)C(C)(C)C)CC1 (stereo not shown) [Compound 45]
0.208 | 398.8 | 0.128 | 359.7 | CC(C)=CCC/C(C)=C/CCC1=CCC(C(=O)OCCN(CCOC(=O)C2CC=C(CC/C=C(\C)CCC=C(C)C)CC2)CCOC(=O)C2CC=C(CC/C=C(\C)CCC=C(C)C)CC2)CC1 (stereo not shown) [Compound 38]
0.039 | 289.2 | 0.121 | 304.2 | CC(C)=CCCC1=CCC(C(=O)OCCN(C)CCOC(=O)C2CC=C(CCC=C(C)C)CC2)CC1 (stereo not shown) [Compound 42]
0.091 | 286.1 | 0.09 | 260.6 | CC(C)=CCC/C(C)=C/CCC1=CCC(C(=O)OCCN2CCN(CCOC(=O)C3CC=C(CC/C=C(\C)CCC=C(C)C)CC3)CC2)CC1 (stereo not shown) [Compound 36]
0.223 | 357.6 | 0.122 | 363.7 | CC(C)=CCCC1=CCC(C(=O)OCCOC(=O)CN(C)CC(=O)OCCOC(=O)C2CC=C(CCC=C(C)C)CC2)CC1 (stereo not shown) [Compound 47]
0.202 | 291.3 | 0.088 | 324.9 | CC(C)=CCCC1=CCC(C(=O)OCCN(CCOC(=O)C2CC=C(CCC=C(C)C)CC2)CCOC(=O)C2CC=C(CCC=C(C)C)CC2)CC1 (stereo not shown) [Compound 48]
0.128 | 290.2 | 0.127 | 386.4 | CCCCN(CCOC(=O)C1CC=C(CC/C=C(\C)CCC=C(C)C)CC1)CCOC(=O)C1CC=C(CC/C=C(\C)CCC=C(C)C)CC1 (stereo not shown) [Compound 34]
